Assay results: US10438128B2, “Treatment of autoimmune and inflammatory diseases with the arsenic compounds AS2O3 and/or AS2O5 administered locally” (CENTRE NATIONAL DE LA RECHERCHE SCIENTIFIQUE (CNRS), priority 2013, dated 2019)

Columns and labels:
MRL/lpr mice [1] = test: Experiment 3: topical treatment of skin lesions in MRL/lpr mice with As2O5; type: in vivo, mouse; details: 0.5 mg/ml
Method: Methods: The arsenic compound As2O5 is first dissolved at a high concentration (10 to 15 mg/ml) in distilled water until a clear and colorless solution is obtained. The solution is made sterile and free of particles by filtration on a 0.22 μm filter. The stock As2O5 solution thus obtained is then diluted in phosphate buffer or sterile physiological saline so as to obtain a concentration between 0.5 mg/ml for use in vivo. The stock solution of the arsenic compound As2O5 is preserved for 1 to 3 months in the refrigerator (4° C.), while the dilute solution is preserved for only 5 days at 4° C. and away from light.
MRL/lpr mice (12 females and 12 males, 4 to 5 months of age) presenting severe lupus-type skin lesions, and for some cutaneous necrotizing vasculitis (time t0 in FIG. 6), were treated 5 times per week (Monday to Friday), for 8 weeks, by applying on the tissue lesions a compress (or a brush) impregnated with a solution of arsenic As2O5 at concentrations of 0.5 mg/ml. The control animals were mice of the same age and sex treated with the excipient.

MRL/lpr mice [2] = test: Experiment 4: gradual decrease in number of weekly topical applications of As2O5; type: in vivo, mouse
Method: Methods: Severe skin lesions and cutaneous necrotizing vasculitis present at time t0 in 10 MRL/lpr mice 4 to 5 months in age were treated by applying a compress (or a brush) impregnated with a solution of the arsenic compound As2O5 at the concentration of 0.5 mg/ml.

MRL/lpr mice [3] = test: Experiment 5: systemic (intraperitoneal) treatment of skin lesions in MRL/lpr mice with As2O5; type: in vivo, mouse
Method: Methods: MRL/lpr mice (6 females and 6 males, 4 to 5 months of age) presenting severe lupus-type skin lesions and cutaneous necrotizing vasculitis (time t0 FIGS. 8A and 8B) were treated 5 times per week (Monday to Friday), for 3 or 4 weeks, by intraperitoneal injections of 0.1 ml per 10 g of mouse of a solution of arsenic As2O5 at the concentration of 0.5 mg/ml. The control animals were mice of the same age and sex treated with the excipient.

MRL/lpr mice [4] = test: Experiment 6: local treatment with suboptimal As2O3, As2O5 or the combination; type: in vivo, mouse; details: suboptimal 0.12 mg/ml, 5 applications/week, 8 weeks
Method: (§1) Methods: MRL/lpr mice (males and females) presenting severe lupus-type skin lesions and cutaneous necrotizing vasculitis were treated 5 times per week, for 8 weeks, by administering an aqueous solution containing either the arsenic compound As2O3 or the compound As2O5 or a mixture of both compounds As2O3+As2O5 or phosphate buffer (PBS) as negative control. Weakly effective doses (suboptimal) of As2O3 or As2O5 were voluntarily used. The arsenic compounds were administered in aqueous form using compresses or a brush for local treatment or an intraperitoneal injection for systemic treatment.
(§2) At the conclusion of the treatment, the blood of each animal was sampled in order to quantify in the serum the levels of autoantibodies (anti-DNA, rheumatoid factor) and cytokines involved in the disease. Skin from the back of each animal was sampled for histological analysis and for analysis of the nature of the inflammatory infiltrate after isolating the cells using enzymatic methods, their counts under the microscope and their analyses by flow cytometry using fluorescent antibodies specific to leukocytes.

MRL/lpr mice [5] = test: Experiment 6: systemic treatment with suboptimal As2O3, As2O5 or the combination; type: in vivo, mouse; details: suboptimal 0.12 mg/ml, 5 times/week, 8 weeks
Method: as §1, §2

[6] = cited from earlier work
[7] = ratio to As2O3; cited from earlier work
MRL/lpr mice [8] = test: Experiment 1: topical treatment of skin lesions in MRL/lpr mice with As2O3; type: in vivo, mouse; details: 0.5 mg/ml
Description: MRL/lpr mice spontaneously develop disseminated lupus erythematosus, rheumatoid polyarthritis and Sjögren's syndrome characterized by dermatological, vascular, renal, pulmonary, articular and ocular damage due to lymphoid cell infiltrates. As in man, a strong sexual dimorphism is observed in MRL/lpr mice, the female mice presenting an earlier and more severe pathology than the males and dying earlier. The disease begins around the age of 8 weeks and causes the death of the mice, on average, at around 18 weeks of age for the females and 22 weeks for the males, the average lifespan of a normal mouse being 2 years.
Methods: The solubility of arsenic compounds depends mainly on the pH and oxidation-reduction conditions and the temperature of the excipient. Since the arsenic compound As2O3 is poorly water soluble, it is first dissolved at a high concentration (60 to 70 mg/ml) in dilute alkaline solution (0.5 or 1 M) and gently heated until a clear and colorless solution is obtained. This solution is made free of particles and sterile by filtration on a 0.22 μm filter. The stock As2O3 solution thus obtained is then diluted in phosphate buffer or sterile physiological saline at the concentration varying from 0.5 mg/ml for use in vivo. The stock solution of the arsenic compound As2O3 is preserved from 1 to 3 months in the refrigerator (4° C.), whereas the dilute solution is preserved only 5 days at 4° C. and away from light.
MRL/lpr mice (10 females and 10 males per group, aged 4 to 5 months) presenting severe lupus-type skin lesions, and for some cutaneous necrotizing vasculitis, were treated, 3 or 5 times per week depending on the experiment (from Monday to Friday), for 8 weeks, by application on the tissue lesions of a compress (or a brush) impregnated with arsenic As2O3 solution at concentrations of 0.5 mg/ml. The control animals were mice, of the same age and sex, treated with the excipient.

MRL/lpr mice [9] = test: Experiment 2: gradual decrease in number of weekly topical applications of As2O3; type: in vivo, mouse
Method: Methods: Severe skin lesions and cutaneous necrotizing vasculitis present before treatment (time t0 in FIGS. 3, 4 and 5) in 15 4-month-old MRL/lpr mice were treated by applying a compress (or a brush) impregnated with a solution of the arsenic compound As2O3 at the concentration of 0.5 mg/ml. The number of applications per week varied from 2 to 5 depending on the experiment. Similarly, the total duration of the topical treatment varied from 7 to 32 weeks.

[10] = 20° C.; cited from earlier work

O=[As](=O)O[As](=O)=O [As2O5, arsenic pentoxide]
regrowth of hair (regeneration of lesioned skin tissue) (MRL/lpr mice [1]): nearly complete regrowth of hair
destruction of the skin in first week of treatment (MRL/lpr mice [1]; 5 applications/week): ceased
skin lesions after 4 weeks of treatment (MRL/lpr mice [1]; 5 applications/week): almost disappeared
time until destruction of skin tissue ceased (MRL/lpr mice [1]; 5 applications/week): less than 2 weeks
undesirable effect (nonspecific immunosuppression, tissue toxicity or premature death) (MRL/lpr mice [1]; 8 weeks): no undesirable effect
relapse or rebound of the disease at a single application per week (MRL/lpr mice [2]; 5 weeks, 1 application/week): no relapse or rebound
time to stop development of tissue lesions (MRL/lpr mice [2]; front-line treatment, 5 applications/week): ≤ 2 weeks
skin lesions after 2 further weeks at 2 applications per week (MRL/lpr mice [2]; topical, 0.5 mg/ml): nearly disappeared
inflammatory skin and vasculitis lesions after 2 weeks (MRL/lpr mice [2]; topical, 0.5 mg/ml, 5 applications/week): ceased
survival after the beginning of the treatment (majority of animals) (MRL/lpr mice [2]; topical, schedule reduced from 5 to 1 application/week): more than 8 weeks
regrowth of hair (regeneration of lesioned skin tissue) (MRL/lpr mice [3]): nearly complete regrowth of hair
undesirable effect (nonspecific immunosuppression, tissue toxicity or premature death) (MRL/lpr mice [3]; 0.5 mg/ml solution): no undesirable effect
destruction of skin after 3 or 4 weeks of treatment (MRL/lpr mice [3]; 0.1 ml per 10 g of 0.5 mg/ml, 5 times/week): strongly regressed or even nearly disappeared
cells in lymphocytic/inflammatory infiltrate of back skin (FIG. 9A) (MRL/lpr mice [4]): still high number of cells
inflammatory skin lesions (FIG. 10) (MRL/lpr mice [4]): presence of severe skin lesions
cells in lymphocytic/inflammatory infiltrate of back skin (FIG. 9B) (MRL/lpr mice [5]): still high number of cells
oral lethal dose for man [6]: 5 to 50 mg/kg
toxicity relative to As2O3 [7]: about 1/60

arsenic trioxide [As2O3]
regrowth of hair (skin tissue regeneration) (MRL/lpr mice [8]): nearly complete regrowth of hair
tissue lesions after 8 weeks with 3 weekly applications (MRL/lpr mice [8]; 3 applications/week, less severe lesions, female mice): significant decrease
tissue destruction after 2 weeks of treatment (MRL/lpr mice [8]; 5 applications/week, 2 weeks): ceased and even regressed
inflammatory skin lesions after 8 weeks of treatment (MRL/lpr mice [8]; 5 applications/week, 8 weeks): nearly completely disappear
undesirable effect (nonspecific immunosuppression, tissue toxicity or premature death) (MRL/lpr mice [8]; 8 weeks): No undesirable effect
relapse or rebound of the disease after reduced dosing schedule (MRL/lpr mice [9]; 5/week for 4 weeks, then 3/week for 6 weeks, female mouse): no relapse or rebound
skin damage after 7 weeks of topical treatment (MRL/lpr mice [9]; 5 applications/week for 2 weeks, then 2/week for 5 weeks): decreased considerably
age reached by treated mouse (euthanized) (MRL/lpr mice [9]; female, 3.5 months old at t0, treated 32 weeks discontinuously): 1 year
cells in lymphocytic/inflammatory infiltrate of back skin (FIG. 9A) (MRL/lpr mice [4]): still high number of cells
inflammatory skin lesions (FIG. 10) (MRL/lpr mice [4]): presence of severe skin lesions
cells in lymphocytic/inflammatory infiltrate of back skin (FIG. 9B) (MRL/lpr mice [5]): still high number of cells
solubility in water [10]: 37 mg/mL
